Reference: publication PMC4071002, “Identification and In Vitro Reactivity of Celiac Immunoactive Peptides in an Apparent Gluten-Free Beer” (PLoS ONE, 2014)
Residues, ends and D or L forms follow the SMILES beside them.

Test system: moAb A1 (anti-gliadin 33-mer)
Test: A1 competitive ELISA (immobilized gliadin, A1-HRP)
Type: binding
Settings: Figure 2A
Description: Maxisorp microtitre plates (Nunc, Roskilde, Denmark) were coated with gliadin solution (Sigma, St Louis, MO, USA) and incubated overnight at 4°C. The plates were washed with phosphate-buffered saline (PBS) containing 0.05% Tween 20 and blocked with 5% non-fat dry milk in PBS for 1 h at room temperature (RT). 33-mer peptide was used as standard. Serial dilutions of peptides were made in PBS-bovine serum albumin (BSA) 3%, to each of which was added G12-HRP or A1-HRP antibody solution [14]. The samples were pre-incubated at RT, and then added to the wells. After 30 min of incubation at RT, the plates were washed and substrate solution (TMB, Sigma) was added. The reaction was stopped with 1 M sulphuric acid, and the absorbance at 450 nm was measured (microplate reader UVM340; Asys Hitech GmbH, Eugendorf, Austria). Two separate assays were performed, each with three repetitions.
Peptide curves were obtained by plotting percentage maximum absorbance against logarithm of antigen concentration. The software package Sigma Plot 9.0 (Systat Software, Inc., Point Richmond, CA, USA) was used to calculate IC50 and the cross-reactivity (CR) for each peptide. The IC50 is defined as the concentration that produces a reduction of 50% in the peak signal in the ELISA. The CR was determined as (IC50 of the peptide that presents the greatest affinity for the antibody/IC50 of each peptide assayed) x 100.

For `CC(C)C[C@H](NC(=O)[C@H](CCC(N)=O)NC(=O)[C@@H](N)CC(C)C)C(=O)N[C@@H](CCC(N)=O)C(=O)N1CCC[C@H]1C(=O)N[C@@H](Cc1ccccc1)C(=O)N1CCC[C@H]1C(=O)N[C@@H](CCC(N)=O)C(=O)N1CCC[C@H]1C(=O)N[C@@H](CCC(N)=O)C(=O)N[C@@H](CC(C)C)C(=O)N1CCC[C@H]1C(=O)N[C@@H](Cc1ccc(O)cc1)C(=O)N1CCC[C@H]1C(=O)N[C@@H](CCC(N)=O)C(=O)N1CCC[C@H]1C(=O)N[C@@H](CCC(N)=O)C(=O)N[C@@H](CC(C)C)C(=O)N1CCC[C@H]1C(=O)N[C@@H](Cc1ccc(O)cc1)C(=O)N1CCC[C@H]1C(=O)N[C@@H](CCC(N)=O)C(=O)N1CCC[C@H]1C(=O)N[C@@H](CCC(N)=O)C(=O)N[C@@H](CC(C)C)C(=O)N1CCC[C@H]1C(=O)N[C@@H](Cc1ccc(O)cc1)C(=O)N1CCC[C@H]1C(=O)N[C@@H](CCC(N)=O)C(=O)N1CCC[C@H]1C(=O)N[C@@H](CCC(N)=O)C(=O)N1CCC[C@H]1C(=O)N[C@@H](Cc1ccccc1)C(=O)O` [33-mer] (H-LQLQPFPQPQLPYPQPQLPYPQPQLPYPQPQPF-OH; N-terminus and C-terminus assumed), the “moAb A1 IC50” value (competitive ELISA, gliadin-coated plates, A1-HRP, 30 min RT, absorbance 450 nm, two assays, three replicates each) was 0.60 µg/mL and the “moAb A1 CR” value (cross-reactivity = (IC50 of peptide with greatest affinity / IC50 of each peptide) x 100, PP 24.1 = 100) was 241.67%.
